Measured values reported in US20200362303A1, “MAINTENANCE-AND-AMPLIFICATION METHOD AND DIFFERENTIATION INDUCTION METHOD FOR PRIMORDIAL GERM CELLS/PRIMORDIAL GERM CELL-LIKE CELLS” (KYOTO UNIVERSITY, priority 2017, published 2020).

Key:
[1] = test system: PGCLCs induced from BVSCVR ESC (XX); assay: BVSC and VR expression by FACS in cultured PGCLC; type: cell-based, mouse; settings: added at c3, read at c9; varying concentrations
Experimental: (§1) The PGC/PGCLC expansion medium was constituted of 10% KSR, 2.5% FBS, 0.1 mM NEAA, 1 mM sodium pyruvate, 2 mM L-glutamine, 0.1 mM 2-mercaptoethanol, 100 U/ml penicillin, 0.1 mg/ml […] streptomycin, […] forskolin, and 10 μM rolipram. The entire medium was changed every 2 days from c3. Cytokines/compounds for induction of female fate were provided from c3 to the end of culture. RA and BMP concentrations used were 100 nM and 300 ng/ml, respectively, unless otherwise specified. Brightfield and fluorescence images were captured using an IX73 inverted microscope (Olympus).
(§2) The preparation of d4/c0 PGCLC for FACS is described in “ESC culture/induction and PGCLC induction/culture”. To isolate germ cells in vivo, fetal gonads of BVSC, VR or SG mice were cut and processed for FACS according to the procedure described for d4/c0 PGCLC. Culture PGCLC was also prepared by the same method except that, after dissociation, the cells were washed with 0.1% BSA-DMEM containing 100 μg/ml DNase (Sigma-Aldrich), lysed DNA from dead cells was digested to prevent the formation of cell/debris clumps. Fluorescent activity of BV/SG, SC, or DT/VR was detected with FITC, Horizon V500 or PE-Texas Red channels, respectively. FACS data was analyzed using FlowJo or FACS Diva software package.

[2] = test system: PGC at E11.5; assay: Ex vivo culture of E11.5 PGC, SCP3/DDX4/SG expression at c4; type: cell-based, mouse; settings: cultured 4 days; RA alone
Experimental: (§3) Immunofluorescence (IF) analysis was performed as described previously (Hayashi et al, 2012). The following primary antibodies were used: chicken anti-GFP (ab13970; Abeam), rabbit anti-DDX4 (ab13840; Abeam), mouse anti-DDX4 (ab27591; Abeam), rabbit anti-DAZL (ab34129; Abeam), goat anti-DAZL (sc-27333; Santa Cruz), rabbit anti-STRA8 (ab49602; Abeam), mouse anti-SYCP3 (ab97672; Abeam) and rabbit anti-TEX14 (ab41733; Abeam)IgG. The following secondary antibodies were used: Alexa Fluor 488-goat anti-mouse or chicken IgG; Alexa Fluor 568-goat anti-rabbit IgG and Alexa Fluor 633-goat anti-mouse, anti-chicken IgG; Alexa Fluor 488-donkey anti-mouse IgG; Alexa Fluor 568-donkey anti-rabbit IgG and Alexa Fluor 633-donkey anti-goat IgG. IF images were acquired using a confocal microscope [FV1000 (Olympus) or LSM780 (Zeiss)].

[3] = test system: cultured PGCLC; assay: Immunofluorescence analysis of STRA8, SCP3, DDX4 in cultured PGCLC; type: cell-based, mouse
Experimental: as §1, §3

[4] = test system: PGCLC induced from BVSCDT ESC(XY); assay: Screening for factors inducing female germ cell fate: DT and BV expression by FACS at c7; type: cell-based, mouse; settings: added from c3, read at c7; RA 100 nM, cytokines 500 ng/ml; BMPs in combination with RA
Experimental: as §1, §2
In the signal inhibitory experiment, LDN193189 (#04-0074; Stemgent) and BMS493 (B6688; Sigma-Aldrich) dissolved in DMSO were used as ALK2/3 inhibitor and RAR inhibitor, respectively.

[5] = test system: BV/SC(+) cells; assay: Cell cycle analysis by EdU and 7AAD uptake in PGCLC culture; type: cell-based, mouse; settings: RA alone; c9
Experimental: Cell cycle analysis was performed using the Click-iT EdU Flow Cytometry Assay Kit (C10424; Thermo Fischer Scientific) according to the manufacturer's instructions. Cultured PGCLC was treated with 10 μg/ml EdU for 30 min to 2 hr and analyzed by FACS.

[6] = test system: PGCLC; assay: CsA or FK506 alone at various concentrations on PGCLC proliferation (fold difference d7/d1); type: cell-based, mouse; settings: 10, 5, 1, 0 μM tested, without FR10
[7] = test system: cultured PGCLC; assay: Cell cycle analysis of cultured PGCLC (BrdU/EdU, FACS); type: cell-based, mouse; settings: FR10+CsA compared to FR10 alone
Experimental: The cell cycle status of ESC, EpiLC, d4, d4c3, d4c5 and d4c7 PGCLC(BDF1-2) at E13.5, E14.5 and E15.5 and male germ cells was examined in the same manner as in a previous report (Kagiwada et al, 2013). To label the cultured cells, the cells were incubated with BrdU (10 μM) for 30 min. To label gem cells, female mice (ICR) were mated with Stella-EGFP males and pregnant females were intraperitoneally injected with 1 mg BrdU and embryos were harvested 30 min later. Cultured cells or male gonads were dispersed in single cells by TrypLE treatment. To detect BrdU uptake, the APC-BrdU Flow Kit (BD Biosciences) was used according to the manufacturer's instructions. The stained samples were analyzed using BD FACSAriaIII (BD) with FACS Diva (BD) software, and PGCLC or male gem cells were respectively identified by BV or Stella-EGFP fluorescence. Three biological replicates were analyzed for each sample.
The analysis was performed as in Example [I] except that EdU (10 μM) was used in place of BrdU, and Click-iT™ Plus EdU Alexa Fluor™ 647 Flow Cytometry Assay Kit (Thermo Fisher Scientific) was used for detection of EdU uptake.

[8] = test system: d4c7 PGCLC; assay: Detection of apoptotic cells (Annexin V); type: cell-based, mouse; settings: FR10+CsA compared to FR10 alone
Experimental: d4c7 PGCLC cultured in FR10 or FR10+CsA was dispersed in single cells by TrypLE treatment, and stained using Annexin V Apoptosis Detection Kit APC (eBioscience) according to the manufacturer's instructions. The stained samples were analyzed using BD FACSAriaIII (BD) with FACSDiva (BD) software, and PGCLC was identified by BV fluorescence. Three biological replicates were analyzed for each sample.

[9] = test system: testes of neonatal W/Wv mice; assay: Transplantation of amplified PGCLC into testes of neonatal W/Wv mice (spermatogenesis, offspring); type: in vivo, mouse; settings: d4c7 PGCLC; neonatal W/Wv recipients
Experimental: After purification of PGCLC by FACS, 1×10^4-1×10^5 cells per testis were injected into the testes of randomly selected neonatal (7 days old) or adult W/W^v mouse, as previously reported (Chuma et al, 2005). Where necessary, anti-mouse CD4 antibody ([…] per dose, clone GK1.5; Biolegend) was injected intraperitoneally on day 0, 2 or 4 for immunosuppression (Kanatsu-Shinohara et al, 2003). To assess pregnancy, recipients at 10 weeks post-transplant were mated with BDF1 females. The genotype of BVSC transgene progeny was determined as previously reported (Ohinata et al, 2008). For HE staining, testis or epididymis was fixed with Bouin's solution and embedded in paraffin, and sections were produced.
Spermatozoons were collected from the cauda epididymis and pre-incubated in HTF medium (Kyudo Co., Ltd.) for 1 hr at 37° C. Eggs were collected from BDF1 females that were superovulated by injecting PMSG and hCG and fertilized with sperm in HTF medium. The obtained 2-cell embryos were transferred to the fallopian tube of pseudopregnant ICR females 0.5 days after pregnancy (dpc). Pups were delivered by cesarean section at 18.5 dpc.
Spermatozoons were collected from the mouse testis that received transplantation of PGCLC by the method described in Example [I], and directly injected with a micromanipulator into the ovum collected from BDF1 females that were superovulated by injecting PMSG and hCG. […]

[10] = test system: E9.5 PGC; assay: Expansion culture of E9.5 PGC on m220-5 feeder; type: cell-based, mouse; settings: CsA in addition to forskolin and PDE4 inhibitor (FR10)
Experimental: (§4) Since the m220-5 feeder treated with MMC was vulnerable to forskolin and rolipram, m220-5 cells were subcultured 3 times with both forskolin and rolipram each at 10 μM and adapted to these compounds before MMC treatment (1-2 μg/ml for 2 hr). d4 PGCLC or E9.5 PGC(BDF1×Stella-EGFP) was selected by FACS, and the cells were seeded on m220-5 cells in GMEM medium containing 10% KSR, 0.1 mM NEAA, 1 mM sodium pyruvate, 0.1 mM 2-mercaptoethanol, 100 U/ml penicillin, 0.1 mg/ml streptomycin, 2 mM L-glutamine, 2.5% FCS, 100 ng/ml SCF, 10 μM forskolin, and 10 μM rolipram. Half of the culture medium was changed every 2 days.
(§5) Expansion culture of PGC/PGCLC to investigate the combined effect of cyclosporin A (CsA) was performed as in Example [I], except that 5 μM CsA was added to the medium in addition to 10 μM forskolin and 10 μM loripram (FR10).

[11] = test system: BV (+) d4 PGCLCs; assay: Compound library screening for PGCLC proliferation (BV fluorescence by cell analyzer); type: cell-based, mouse; settings: three CsA entries in the screening data, two exceeded; 10 μM and 1 μM
Experimental: d4 PGCLC was seeded by FACS on m220-5 feeders in 96-well plates and BV fluorescence was monitored by cell analyzer (Cellavista; SynenTec). Fluorescence photograph for BV was taken by Cellavista cell analyzer with the following settings: 10× objectives; exposure time: 140 μsec; gain: 4×; binning: 4×4; excitation: 500/24 nm; emission: 542/27 nm. BV fluorescence was detected using the following algorithm/attribute parameters: sensitivity: 10; region merging: 200; min. granule intensity: 50; well edge distance: 200; contrast: 1; size: 3,000; intensity: 255; roughness: 500; granularity: 100; granule intensity: 255; granule count: 10,000; longishness: 100; compactness: 1. The value of “cell nucleus” was used for the detection of BV fluorescence.
The compound library was screened at concentrations of 10 μM and 1 μM. […] 200 BV (+) d4 PGCLCs induced from BDF1-2 ESC were seeded in the wells of a 96-well plate, and BV fluorescence was measured on the Cellavista cell analyzer on day 1 of culture (c1), c3, c5 and c7. The value of “cell nucleus” was used for the detection of BV fluorescence. […] For each compound, the fold difference in BV fluorescence between c1 and c7 was calculated for each compound and compounds with a fold difference value exceeding 3SD of the mean of the negative control were identified as those that potentiate PGCLC proliferation.

[12] = test system: d4 PGCLC; assay: Expansion culture of d4 PGCLC on m220-5 feeder (cell number fold increase); type: cell-based, mouse
Experimental: as §4, §5

Molecule	BVSC and VR expression [1]	induction of SCP3 [2]	BV/SC(+) cells expressing STRA8 ([3]; RA alone) [%]	induction of VR/DDX4 and SCP3 (+) cells (meiotic entry) ([3]; cultured PGCLC, c9, BMP4, 5, 7 combined with RA, BMS493 with BMP2, LDN193189 with RA and BMP2)	DT and BV expression in BV (+) cells [4]	entry into meiosis by cell cycle profile [5]	most optimal concentration for growing PGCLCs [6] [µM]	percentage of S-stage cells [7]	percentage of apoptotic cells [8]	function of amplified PGCLC after transplantation into testes [9]	proliferation of E9.5 PGC with CsA added [10]	fold difference (d7/d1) of BV signal in compound library screening [11] [SD]	proliferation of PGCLC on average with CsA added ([12]; 5 μM CsA in addition to forskolin and PDE4 inhibitor (FR10))	colony morphology and BVSC expression of expanded cells ([12]; expansion culture on m220 feeder)
CC1=C(/C=C/C(C)=C/C=C/C(C)=C/C(=O)O)C(C)(C)CCC1 [RA, all trans retinoic acid]	did not activate VR	Neither control culture nor culture with RA alone induced SCP3	~77.7	did not activate VR/DDX4 or SCP3	increased DT levels	did not go into meiosis even in c9								
cyclo{-[(2S,3R,4R,6E)-3-hydroxy-4-methyl-2-methylaminooct-6-enoyl]-L-2-aminobutanoyl-N-methylglycyl-N-methyl-L-leucyl-L-valyl-N-methyl-L-leucyl-L-alanyl-D-alanyl-N-methyl-L-leucyl-N-methyl-L-leucyl-N-methyl-L-valyl-} [CsA]							5	increased percentage of S-stage	decreased percentage of apoptotic cells	capable of differentiating into functional spermatozoa	about 16 fold	> 3	about 50 fold	formed flat colonies and strongly expressed BVSCs
